Experimental data taken from ChEMBL document CHEMBL5614367, “Hydroxamic acid hybrids: Histone deacetylase inhibitors with anticancer therapeutic potency” (Eur J Med Chem, 2023).
pIC50: −log10 of the molar value. Values belong to the compound of their own block, whether it stands above or below them.

Columns and labels:
K562 = test: cells; assay type: functional, cell-based; conditions: Homo sapiens, K562, 72 h; pooled result: one value given for 11 cell lines, strains, targets or settings
HCT-116 = test: Antitumor activity against human HCT-116 cells xenografted in mouse assessed as tumor weight inhibition at 30 to 150 mg/kg, ip relative to control; assay type: functional; conditions: dose 30-150 mg/kg
HGC-27 = test: Antitumor activity against human HGC-27 cells xenografted in mouse assessed as tumor weight inhibition at 30 to 150 mg/kg, ip relative to control; assay type: functional; conditions: dose 30-150 mg/kg
EL4 = test: Antitumor activity against mouse EL4 cells implanted in mouse assessed as tumor weight inhibition at 15 mg/kg, ip measured after 12 days relative to control; assay type: functional; conditions: EL4, 288 h, time 12 day
Histone deacetylase 8 = biological target: T1, Histone deacetylase 8 (Homo sapiens, UniProt Q9BY41); test: Inhibition of HDAC8 (unknown origin)
T1 sequence (Q9BY41 whole entry): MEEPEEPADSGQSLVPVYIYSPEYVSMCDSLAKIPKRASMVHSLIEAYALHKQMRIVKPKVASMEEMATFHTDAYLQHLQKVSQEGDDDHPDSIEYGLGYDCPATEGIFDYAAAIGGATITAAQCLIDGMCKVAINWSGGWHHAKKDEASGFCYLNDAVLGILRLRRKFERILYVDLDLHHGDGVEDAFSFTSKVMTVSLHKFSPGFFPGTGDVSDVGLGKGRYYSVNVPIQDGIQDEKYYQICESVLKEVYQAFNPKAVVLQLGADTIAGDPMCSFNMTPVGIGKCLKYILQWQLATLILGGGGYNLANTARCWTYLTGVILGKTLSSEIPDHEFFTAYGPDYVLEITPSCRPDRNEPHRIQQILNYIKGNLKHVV

Histone deacetylase 2 = Histone deacetylase 2 (Homo sapiens, UniProt Q92769); test: Inhibition of HDAC2 (unknown origin)
Chain of Histone deacetylase 2 (Q92769 whole entry): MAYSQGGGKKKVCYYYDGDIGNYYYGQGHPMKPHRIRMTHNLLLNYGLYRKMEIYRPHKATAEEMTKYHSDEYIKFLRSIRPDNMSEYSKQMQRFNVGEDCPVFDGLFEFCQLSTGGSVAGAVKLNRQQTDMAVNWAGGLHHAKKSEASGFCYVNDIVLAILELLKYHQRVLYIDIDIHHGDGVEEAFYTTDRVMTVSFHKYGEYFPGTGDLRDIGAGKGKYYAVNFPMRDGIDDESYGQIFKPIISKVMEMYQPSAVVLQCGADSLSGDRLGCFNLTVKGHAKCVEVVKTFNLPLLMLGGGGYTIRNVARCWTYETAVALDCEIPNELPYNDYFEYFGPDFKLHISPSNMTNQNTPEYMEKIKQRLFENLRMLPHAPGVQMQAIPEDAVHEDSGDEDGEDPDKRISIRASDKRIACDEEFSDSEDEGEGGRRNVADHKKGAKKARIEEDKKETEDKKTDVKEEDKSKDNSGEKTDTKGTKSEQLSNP

A20 = test: Antitumor activity against mouse A20 cells implanted in mouse assessed as tumor weight inhibition at 15 mg/kg, ip measured after 12 days relative to control; assay type: functional; conditions: A20, 288 h, time 12 day
KYSE-450 [1] = test: Antiproliferative activity against human KYSE-450 cells assessed as inhibition of cell growth measured after 72 hrs by CCK-8 assay; assay type: functional, cell-based; conditions: KYSE-450, 72 h
KYSE-150 cell line = test: Antiproliferative activity against human KYSE-150 cells assessed as inhibition of cell growth measured after 72 hrs by CCK-8 assay; assay type: functional, cell-based; conditions: KYSE-150, 72 h
LNCaP C4-2B = test: Antiproliferative activity against human LNCaP C4-2B cells assessed as inhibition of cell growth measured after 72 hrs by SRB assay; assay type: functional, cell-based
LNCaP C4-2 = test: Antiproliferative activity against human C4-2 cells assessed as inhibition of cell growth measured after 72 hrs by SRB assay; assay type: functional, cell-based; conditions: LNCaP C4-2, 72 h
MIA PaCa-2 = test: Antiproliferative activity against human MIA PaCa-2 cells assessed as inhibition of cell growth measured after 72 hrs by MTT assay; assay type: functional, cell-based; conditions: MIA PaCa-2, 72 h
CWR22R = test: Antiproliferative activity against human 22Rv1 cells assessed as inhibition of cell growth measured after 72 hrs by SRB assay; assay type: functional, cell-based; conditions: 22Rv1, 72 h
CFPAC-1 = test: Antiproliferative activity against human CFPAC-1 cells assessed as inhibition of cell growth measured after 72 hrs by MTT assay; assay type: functional, cell-based; conditions: CFPAC-1, 72 h
BXPC-3 [2] = test: Antiproliferative activity against human BXPC-3 cells assessed as inhibition of cell growth measured after 72 hrs by MTT assay; assay type: functional, cell-based; conditions: BXPC-3, 72 h
A549 = test: Antitumor activity against human A549 cells xenografted in assessed as reduction in tumor growth at 50 mg/kg, po administered via oral gavage 5 days on/2 days off dosing and measured on day 10,25 and 31 relative to control; assay type: functional; design: scale not given: the % may be the effect or the level left; conditions: time 31 day
LAPC4 = test: Antiproliferative activity against human LAPC4 cells assessed as inhibition of cell growth measured after 72 hrs by SRB assay; assay type: functional, cell-based; conditions: LAPC4, 72 h
KYSE-30 = test: Antiproliferative activity against human KYSE-30 cells assessed as inhibition of cell growth measured after 72 hrs by CCK-8 assay; assay type: functional, cell-based; conditions: KYSE-30, 72 h
LNCaP = test: Antiproliferative activity against human LNCaP cells assessed as inhibition of cell growth measured after 72 hrs by SRB assay; assay type: functional, cell-based
KYSE-510 = test: Antiproliferative activity against human KYSE-510 cells assessed as inhibition of cell growth measured after 72 hrs by CCK-8 assay; assay type: functional, cell-based; conditions: KYSE-510, 72 h
KYSE-450 [3] = test: Antitumor activity against human KYSE-450 cells xenografted in male C57BL/6 nude mouse assessed as reduction in tumor growth at 200 mg/kg, po administered for 5 days followed by 2 off schedule and measured every third day for 31 days relative to control; assay type: functional; design: scale not given: the % may be the effect or the level left; conditions: time 31 day
ASPC1 = test: Antiproliferative activity against human ASPC1 cells assessed as inhibition of cell growth measured after 72 hrs by MTT assay; assay type: functional, cell-based; conditions: ASPC1, 72 h
[4] = Antitumor activity against human Castration-resistant LuCaP 35CR cells xenografted in male CB17 SCID mouse assessed as inhibition of tumor growth at 100 mg/kg, po administered via oral gavage measured after 19 days relative to control; assay type: functional; conditions: 456 h, time 19 day
HPAC = test: Antiproliferative activity against human HPAC cells assessed as inhibition of cell growth measured after 72 hrs by MTT assay; assay type: functional, cell-based
DU-145 [5] = test: Antiproliferative activity against human DU-145 cells assessed as inhibition of cell growth measured after 72 hrs by SRB assay; assay type: functional, cell-based; conditions: DU-145, 72 h
BXPC-3 [6] = test: Antitumor activity against human BXPC-3 cells xenografted in female BALB/c nude mouse assessed as tumor inhibition rate by measuring T/C ratio at 10 mg/kg, ip administered for 20 days and measured every 1 to 3 days relative to control; assay type: functional; conditions: time 20 day
PANC-1 = test: Antiproliferative activity against human PANC-1 cells assessed as inhibition of cell growth measured after 72 hrs by MTT assay; assay type: functional, cell-based; conditions: PANC-1, 72 h
PC-3 = test: Antiproliferative activity against human PC-3 cells assessed as inhibition of cell growth measured after 72 hrs by SRB assay; assay type: functional, cell-based; conditions: PC-3, 72 h
DU-145 [7] = test: cells; assay type: functional, cell-based; conditions: Homo sapiens, DU-145, 48 h; pooled result: one value given for 6 cell lines, strains, targets or settings
[8] = biological target: Epidermal growth factor receptor (Homo sapiens) (UniProt P00533); test: Inhibition of EGFR (unknown origin) at 10 uM preincubated for 0.5 hrs followed by substrate addition and measured after 1 hr by ADP-Glo assay relative to control; conditions: time 1.5 hrs
Chain of Epidermal growth factor receptor (Homo sapiens) (P00533 whole entry): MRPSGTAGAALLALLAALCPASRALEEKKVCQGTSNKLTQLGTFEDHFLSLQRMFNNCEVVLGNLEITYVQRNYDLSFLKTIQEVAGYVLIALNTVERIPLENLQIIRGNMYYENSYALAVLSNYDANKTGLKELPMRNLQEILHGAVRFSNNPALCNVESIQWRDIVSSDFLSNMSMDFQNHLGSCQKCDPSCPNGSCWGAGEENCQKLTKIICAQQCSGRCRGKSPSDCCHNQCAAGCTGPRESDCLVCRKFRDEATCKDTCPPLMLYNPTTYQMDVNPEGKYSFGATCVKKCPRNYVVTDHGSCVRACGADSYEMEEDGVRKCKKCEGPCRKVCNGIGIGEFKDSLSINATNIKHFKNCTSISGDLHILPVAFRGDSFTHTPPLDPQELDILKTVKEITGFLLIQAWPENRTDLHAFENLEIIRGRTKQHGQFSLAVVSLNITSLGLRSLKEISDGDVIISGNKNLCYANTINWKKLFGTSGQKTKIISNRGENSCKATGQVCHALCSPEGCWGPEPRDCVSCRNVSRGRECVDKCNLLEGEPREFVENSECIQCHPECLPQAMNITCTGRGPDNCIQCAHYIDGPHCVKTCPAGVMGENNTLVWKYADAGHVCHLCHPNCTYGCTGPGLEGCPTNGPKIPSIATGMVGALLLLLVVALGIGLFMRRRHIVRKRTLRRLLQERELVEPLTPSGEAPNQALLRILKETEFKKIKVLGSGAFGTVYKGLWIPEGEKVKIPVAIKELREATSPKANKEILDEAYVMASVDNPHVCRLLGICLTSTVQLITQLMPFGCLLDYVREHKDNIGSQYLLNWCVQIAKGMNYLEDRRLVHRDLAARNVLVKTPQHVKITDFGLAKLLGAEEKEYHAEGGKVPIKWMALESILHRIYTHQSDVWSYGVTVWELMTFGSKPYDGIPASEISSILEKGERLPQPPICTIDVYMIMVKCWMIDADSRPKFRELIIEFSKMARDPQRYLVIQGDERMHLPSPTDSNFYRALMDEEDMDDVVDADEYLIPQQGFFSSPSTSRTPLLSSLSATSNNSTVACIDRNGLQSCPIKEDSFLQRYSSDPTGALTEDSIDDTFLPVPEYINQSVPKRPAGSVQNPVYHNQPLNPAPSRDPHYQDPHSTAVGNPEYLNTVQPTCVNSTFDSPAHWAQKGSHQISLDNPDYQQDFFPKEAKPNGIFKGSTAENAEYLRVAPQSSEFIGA

Histone deacetylase = test: Inhibition of human HDAC extracted from human HeLa cell nuclear extract incubated for 30 mins by fluorometric analysis; assay type: subcellular, Nucleus

pIC50 (K562): 7.64 | pIC50 (Histone deacetylase 8): 8.85 | pIC50 (Histone deacetylase 2): 8.85
SMILES: COc1ncc(-c2cc(OCCCCCCC(=O)NO)c3ncnc(C)c3c2)cc1F
inhibition (INH) (HCT-116): 45.8% | inhibition (INH) (HGC-27): 62.6% | inhibition in vivo at 15 mg/kg (EL4): 78.1% | inhibition in vivo at 15 mg/kg (A20): 60%

pIC50 (LNCaP C4-2B): 8.70 | pIC50 (LNCaP C4-2): 8.70 | pIC50 (MIA PaCa-2): 8.70 | pIC50 (BXPC-3 [2]): 8.70 | pIC50 (LNCaP): 8.70 | pIC50 (ASPC1): 8.70 | pIC50 (DU-145 [5]): 8.70 | pIC50 (PANC-1): 8.70 | pIC50 (PC-3): 8.70
SMILES: COc1ccc(-c2nc(N3CCOCC3)c3sc(CN(C)c4ncc(C(=O)NO)cn4)cc3n2)cn1 [FIMEPINOSTAT]
pIC50 (KYSE-450 [1]): 8.70 | pIC50 (KYSE-150 cell line): 8.70 | pIC50 (CWR22R): 8.70 | pIC50 (CFPAC-1): 8.70 | Activity (A549): ~80% | pIC50 (LAPC4): 8.70 | pIC50 (KYSE-30): 8.70 | pIC50 (KYSE-510): 8.70 | Activity (KYSE-450 [3]): ~65% | inhibition in vivo at 100 mg/kg [4]: ~60% | pIC50 (HPAC): 8.70 | T/C (BXPC-3 [6]): 52%

pIC50 (DU-145 [7]): 5.93 | inhibition [8]: 75% | IC50 (Histone deacetylase): 474 nM
SMILES: O=C(CCCCCCC(=O)Nc1ccc2ncnc(Nc3cccc(Cl)c3)c2c1)NO
